The numbers were not newly measured in US9808446B2, “Method for decreasing symptoms of alcohol consumption” (Alcobra Ltd., priority 2007, dated 2017), which cites them from elsewhere.

For one data set, the system named is frontoparietal cortex. Particulars: guinea pigs, brain.
The conditions of data set [1]: long term data.
Assay in data set [2]: not given
The source holds these as a separate data set.

As for `Cc1ncc(CO)c(CO)c1O.O=C1CC[C@@H](C(=O)O)N1` [Metadoxine, pyridoxol L,2-pyrrolidon-5 carboxylate], the “level of GABA and acetylcholine in the frontoparietal cortex” value in the data set on frontoparietal cortex is on record as “increased”. Moreover, under “animal studies”, the “glutathione depletion in hepatic tissues” value is listed as “prevented” and the “oxidative stress in hepatic tissues” value is on record as “reduced”. Also, where the note is “during chronic alcohol intake”, the “increased production of fatty acid esters in the liver” value is “inhibited”. The “safety for use by humans” value in data set [1] is “safe”. Besides, the “mean half life in human serum” value in data set [2] (Lu Yuan et al.) is “about 0.8 hour”. For the same compound, in data set [2] (oral), the bioavailability is 60-80% and the oral absorption entry is given as “fast”. Besides, the “half life in human serum” value in data set [2] (oral and intravenous, without appreciable differences) is 40 to 60 min.
